Source: patent US4333930A, “Orthoarylideneaminophenethylamines and pharmaceutical compositions” (priority 1980, dated 1982)
Like-named read-outs stand apart in the source and are kept apart here.

What was measured:
[1] = Oral toxicity (mortality) in the mouse, Table 1; assay type: in vivo; conditions: mouse, in vivo, po, Swiss mice, 14 days
Protocol: (§1) The mortality percentages caused by the products of the present invention administered orally to Swiss mice are shown in Table 1. The animals, free of specific pathological organism were housed in an air conditioned room from 24 to 48 hours before the start of the experiments. They were divided up into lots of 5 males and 5 females. With the animals unfed for 24 hours, the substances were administered intragastrically in a base of 6% gum arabic in a volume equal to 0.1 ml for 10 g of animal weight. The mortality was recorded at 14 days.
(§2) % of mortality as a function of the dose

Swiss mice = assay: Oral toxicity (mortality) in the mouse, Table 1; assay type: in vivo; conditions: 14 days, 20160 min
Protocol: as §1, §2

phenylbenzoquinone (PBQ) = assay: Analgesic activity using phenylbenzoquinone (PBQ) as noxious agent, Table 2; assay type: in vivo, male Swiss mouse; conditions: for inhibition in vivo at 100 mg/kg: read-out: % of analgesic activity, 100 mg/kg, male Swiss mouse, PBQ
Protocol: The analgesic activity was determined with the male Swiss mouse using phenylbenzoquinone (PBQ) (a variation of the method of Siegmund et al, Proc. Soc. Exp. Med., […], 95, 729-31) as the noxious agent. Twenty-eightminutes after having administered the test products in a suspension in a 6% gum base, the PBQ solution was injected. The mice were then observed ca. 5 mn. for the next five minutes.
% of analgesic activity as a function of
the dose expressed in mg/kg

[2] = system: number of escapes the animal made in 5 minutes; assay: Escape test, Table 3; assay type: in vivo, mouse; conditions: Mus musculus, po, 5 min, read-out: % of activity (variation of the number of escapes)
Excerpt: The products of the invention were always administered orally in 6% gum base.
The notation NS signifies that the difference between the results noted for the product and the results noted for the excipient alone is not significant at the threshold 0.05 according to the Student t Test.

[3] = system: stereotype induced by apomorphine; assay: Antagonism of the stereotype induced by apomorphine, Table 4; assay type: in vivo; conditions: for % of activity vis-a-vis the stereotype induced by apomorphine: oral; for antagonism vis-a-vis the stereotype with apomorphine: in words
Excerpt: (§3) The psychotropic profile of the present invention products has been characterized with the animals in numerous tests some of whose results are shown hereinafter. The products of the invention were always administered orally in 6% gum base.
% of activity vis-a-vis the stereotype
induced by apomorphine as a function of the
administered dose expressed in mg/kg

[4] = system: ptosis induced by reserpine; assay: Antagonism of ptosis induced by reserpine, Table 6; assay type: in vivo; conditions: po, read-out: % of inhibition of ptosis induced by reserpine
Excerpt: as §3
(§4) Certain tests made it possible to show antidepressive activities. These are tests of antagonism to the effects of reserpine, oxotremorine (according to Everett G. M. et al, Science, 1956, 124, 79 and Levy J. et al, Therapie 1965, 20, 265) and to despair (according to Porsolt P. D. et al, Eur. J. Pharmacol., 1978, 47, 379-91).
% of inhibition of ptosis induced by reserpine
as a function of the dose administered orally

[5] = system: trembling induced by oxotremorine; assay: Antagonism of trembling induced by oxotremorine, Table 7; assay type: in vivo; conditions: read-out: % of inhibition of trembling induced by oxotremorine
Excerpt: as §3, §4
% of inhibition of trembling induced by
oxotremorine as a function of the dose
administered expressed in mg/kg

[6] = system: number of displacements of the animal; assay: Four plates test (anxiolytic activity), Table 5; assay type: in vivo; conditions: oral, mouse
Excerpt: as §3
A certain number of products manifest an anxiolytic activity evidenced in the test with the four plates with the mouse (Table 5).
% of increase in the number of displacements of the
animal as a function of the dose expressed in mg/kg

despair = assay: Test of despair (Porsolt), Table 8; assay type: in vivo; conditions: oral
Excerpt: as §3, §4
Test of despair: % of antagonism as a function
of the dose administered orally and expressed

[7] = Mus musculus, read-out: % of analgesic activity, 200 mg/kg, male Swiss mouse, PBQ
[8] = 100 mg/kg, male Swiss mouse, PBQ

SMILES	mortality at 336 h ([1]; 750 mg/kg) [%]	% of mortality (Swiss mice; 500 mg/kg) [%]	inhibition in vivo at 100 mg/kg (phenylbenzoquinone (PBQ); Mus musculus) [%]	change in vivo at 100 mg/kg [2] [%]	% of activity vis-a-vis the stereotype induced by apomorphine ([3]; 75 mg/kg) [%]	antagonism vis-a-vis the stereotype with apomorphine [3]	mortality at 336 h ([1]; 1000 mg/kg) [%]	mortality at 336 h ([1]; 2000 mg/kg) [%]	inhibition in vivo at 200 mg/kg (phenylbenzoquinone (PBQ); [7]) [%]	change in vivo at 200 mg/kg [2] [%]	change in vivo at 50 mg/kg ([5]; po) [%]	change in vivo at 75 mg/kg ([5]; po) [%]	change in vivo at 100 mg/kg ([5]; po) [%]	change in vivo at 150 mg/kg ([5]; po) [%]	change in vivo at 200 mg/kg ([5]; po) [%]	% of activity vis-a-vis the stereotype induced by apomorphine ([3]; 50 mg/kg) [%]	% of activity vis-a-vis the stereotype induced by apomorphine ([3]; 100 mg/kg) [%]	% of activity vis-a-vis the stereotype induced by apomorphine ([3]; 200 mg/kg) [%]	mortality at 336 h ([1]; 1500 mg/kg) [%]	change in vivo at 25 mg/kg [2] [%]	also measured
CN(C)CCc1cc2c(cc1N=Cc1cccs1)OCO2 [COR 01 151]	60	40	79	-41	–	–	–	–	–	–	–	–	–	–	–	–	–	–	–	–	% of mortality (Swiss mice; 150 mg/kg): 0%; % of mortality (Swiss mice; 250 mg/kg): 10%; % of analgesic activity (phenylbenzoquinone (PBQ); 50 mg/kg, male Swiss mouse, PBQ): 41%
COc1ccc(C=Nc2cc3c(cc2CCN(C)C)OCO3)cc1 [COR 01 210]	0	–	27	-20	-33	manifest an antagonism	10	20	33	-72	-50	-40	-50	-30	-50	–	–	–	–	–	% of activity vis-a-vis the stereotype induced by apomorphine ([3]; 150 mg/kg): -33%; change in vivo at 50 mg/kg [4]: -21%; change in vivo at 100 mg/kg [4]: -38%; change in vivo at 150 mg/kg [2]: -26%
CN(C)CCc1cc2c(cc1N=Cc1ccccc1)OCO2 [COR 01 209]	–	–	–	-37	–	manifest an antagonism	0	60	17	-20	-60	-60	-55	-60	-30	-54	-51	-42	40	-38	change in vivo at 200 mg/kg [4]: -45%; change in vivo at 5 mg/kg [2]: -28%; change in vivo at 50 mg/kg [2]: -32%
C(=Nc1cc2c(cc1CCN1CCCCC1)OCO2)c1cccnc1 [COR 01 174]	–	0	–	–	–	–	–	50	–	–	–	–	–	–	–	–	–	–	–	–	% of mortality (Swiss mice; 1000 mg/kg): 10%; % of analgesic activity (phenylbenzoquinone (PBQ); [8]): 48%; inhibition in vivo at 200 mg/kg (phenylbenzoquinone (PBQ); Mus musculus, 200 mg/kg, male Swiss mouse, PBQ, read-out: % of analgesic activity): 18%
Cc1ccc(C=Nc2cc3c(cc2CCN(C)C)OCO3)cc1 [COR 01 206]	–	–	–	-63	–	manifest an antagonism	–	50	–	–	–	–	–	–	–	-53	-71	-22	0	-18	change in vivo at 50 mg/kg [2]: -28%
C(=Nc1cc2c(cc1CCN1CCCCC1)OCO2)c1cccnc1 [COR 01 202]	30	10	–	–	-29	manifest an antagonism	–	–	–	–	–	–	–	–	–	-32	–	-20	–	–	% of increase in the number of displacements of the animal ([6]; 25 mg/kg): +48%; % of increase in the number of displacements of the animal ([6]; 50 mg/kg): +96%; % of activity vis-a-vis the stereotype induced by apomorphine ([3]; 25 mg/kg): -35%; Test of despair: % of antagonism (despair; 50 mg/kg): -49%; Test of despair: % of antagonism (despair; 100 mg/kg): -67%; % of mortality (Swiss mice; 1000 mg/kg): 60%; % of analgesic activity (phenylbenzoquinone (PBQ); [8]): 0%; % of analgesic activity (phenylbenzoquinone (PBQ); 200 mg/kg, male Swiss mouse, PBQ): 33%; inhibition in vivo at 50 mg/kg (phenylbenzoquinone (PBQ); Mus musculus, 50 mg/kg, male Swiss mouse, PBQ, read-out: % of analgesic activity): 2%; change in vivo at 25 mg/kg ([5]; 25 mg/kg, oral): 0%; change in vivo at 50 mg/kg ([5]; 50 mg/kg, oral): -67%; change in vivo at 75 mg/kg ([5]; 75 mg/kg, oral): -44%
